According to the NIST ThermoML archive (doi:10.1021/acs.jced.5b00806):

Columns and labels:
[1] = Liquid; for mass density: 101.33 kPa, Pycnometric method; for vapor or sublimation pressure: Langmuir
[2] = wn = mass fraction of the nth substance listed; settings: 98 kPa, Liquid, Capillary tube (Ostwald / Ubbelohde) method

CCn1cc[n+](C)c1.CS(=O)(=O)[O-] [1-ethyl-3-methylimidazolium methanesulfonate]
[1]
Settings	mass density [kg/m3]
293.2 K	1244
303.2 K	1237
313.2 K	1230
323.2 K	1223
333.2 K	1217
343.2 K	1212
353.2 K	1205
363.2 K	1198

CCOCCOCCOS(=O)(=O)[O-].CCn1cc[n+](C)c1 [1-ethyl-3-methylimidazolium 2-(2-ethoxyethoxy)ethylsulfate]
[1]
Settings	mass density [kg/m3]	vapor or sublimation pressure [kPa]
293.2 K	1215	–
303.2 K	1207	–
313.2 K	1200	–
323.2 K	1193	–
333.2 K	1185	–
343.2 K	1178	–
353.2 K	1170	–
363.2 K	1164	–
419.7 K	–	3.4e-09
429 K	–	3.8e-09
430.1 K	–	5.6e-09
430.7 K	–	4.9e-09
436.4 K	–	1.3e-08
438.3 K	–	8.7e-09
438.4 K	–	1.1e-08
438.5 K	–	1.1e-08
440.2 K	–	1.4e-08
445.7 K	–	2.6e-08
445.8 K	–	2.5e-08
448.1 K	–	2.1e-08

CCCCn1cc[n+](C)c1.F[B-](F)(F)F [1-butyl-3-methylimidazolium tetrafluoroborate]
[1]
Settings	vapor or sublimation pressure [kPa]
396.3 K	7.2e-10
403.7 K	9.9e-10
412.1 K	2.3e-09
413.6 K	1.8e-09
415.4 K	2.8e-09
421.6 K	4.3e-09
424.9 K	6.3e-09
437.3 K	1.9e-08
437.6 K	1.5e-08
446.4 K	3.7e-08
447.3 K	4e-08
447.7 K	3.9e-08
457.2 K	8.3e-08
457.5 K	8.7e-08
464.7 K	1.5e-07
465 K	1.7e-07
465.5 K	1.6e-07

CCCCn1cc[n+](C)c1.F[B-](F)(F)F [1-butyl-3-methylimidazolium tetrafluoroborate] + O
kinematic viscosity [m2/s], [2]
Settings	w2 = 0.0033	w2 = 0.0097	w2 = 0.0181	w2 = 0.0258	w2 = 0.0345	w2 = 0.0488	w2 = 0.0552	w2 = 0.066
303.2 K	5.78e-05	4.53e-05	3.44e-05	2.89e-05	2.26e-05	1.64e-05	1.52e-05	1.39e-05
313.2 K	3.76e-05	3.02e-05	2.37e-05	2.02e-05	1.62e-05	1.2e-05	1.12e-05	1.02e-05
323.2 K	2.59e-05	2.14e-05	1.73e-05	1.48e-05	1.22e-05	9.2e-06	8.6e-06	7.9e-06
333.2 K	1.86e-05	1.54e-05	1.28e-05	1.13e-05	9.4e-06	7.2e-06	6.8e-06	6.2e-06
343.2 K	1.39e-05	1.21e-05	1e-05	8.8e-06	7.5e-06	5.9e-06	5.5e-06	5.1e-06
353.2 K	1.08e-05	9.8e-06	8e-06	7.2e-06	6.2e-06	4.9e-06	4.6e-06	4.2e-06
363.2 K	8.6e-06	7.7e-06	6.5e-06	5.8e-06	5.1e-06	4.1e-06	3.9e-06	3.6e-06
